Here are results for 1 compound from patent US20040186166A1, “Cannabinoid analogs as peroxisome proliferator activated nuclear receptor gamma activators” (priority 2002, published 2004).

Data set [1] deals with T1, COX-2 (Homo sapiens, UniProt P35354).
T1 sequence (P35354 18-604): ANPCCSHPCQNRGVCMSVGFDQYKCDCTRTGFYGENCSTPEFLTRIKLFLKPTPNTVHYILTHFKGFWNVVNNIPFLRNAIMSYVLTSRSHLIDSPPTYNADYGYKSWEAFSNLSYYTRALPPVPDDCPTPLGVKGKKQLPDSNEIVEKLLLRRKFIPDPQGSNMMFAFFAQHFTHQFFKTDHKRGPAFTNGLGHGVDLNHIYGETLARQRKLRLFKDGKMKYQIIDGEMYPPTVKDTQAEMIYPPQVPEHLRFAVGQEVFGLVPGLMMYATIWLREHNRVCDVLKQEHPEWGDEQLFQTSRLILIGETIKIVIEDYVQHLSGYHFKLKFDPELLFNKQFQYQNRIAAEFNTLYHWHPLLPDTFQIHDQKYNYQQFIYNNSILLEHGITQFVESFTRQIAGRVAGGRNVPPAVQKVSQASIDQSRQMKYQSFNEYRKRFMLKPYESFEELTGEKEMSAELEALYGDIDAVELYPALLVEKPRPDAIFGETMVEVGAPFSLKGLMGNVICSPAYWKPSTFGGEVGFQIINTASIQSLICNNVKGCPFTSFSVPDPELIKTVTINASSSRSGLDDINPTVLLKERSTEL
The following applies: Zurier et al. 1998; cited from earlier work.

For data set [2], the target named is T2, PPARδ (Mus musculus, UniProt P35396).
T2 construct: expressed in transfected cells; host or cells: HEK293 / HEK293T
T2 sequence (P35396 1-440): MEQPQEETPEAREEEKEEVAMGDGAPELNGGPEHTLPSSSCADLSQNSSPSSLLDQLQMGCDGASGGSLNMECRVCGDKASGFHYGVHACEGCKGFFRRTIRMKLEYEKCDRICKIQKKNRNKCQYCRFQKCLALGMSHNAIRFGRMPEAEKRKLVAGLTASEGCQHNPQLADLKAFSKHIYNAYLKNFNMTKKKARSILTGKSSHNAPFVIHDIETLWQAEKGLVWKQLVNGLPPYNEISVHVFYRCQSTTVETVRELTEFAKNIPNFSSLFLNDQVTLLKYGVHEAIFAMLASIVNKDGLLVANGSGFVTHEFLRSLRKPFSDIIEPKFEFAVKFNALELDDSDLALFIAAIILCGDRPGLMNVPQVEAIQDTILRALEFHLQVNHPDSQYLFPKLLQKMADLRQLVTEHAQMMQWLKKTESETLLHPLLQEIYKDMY
Description: Partial protease (trypsin) digestion assay, PPARδ. The format is binding. The following applies: 2, 20 and 100 μM AJA. As to the method: Partial protease digestion was carried out as described by Leng et. al. (J Steroid Biochem Mol Biol 46:643-61, 1993). PPAR proteins were made by in vitro transcription/translation reactions in reticulocyte lysate according to the manufacture's instructions (Promega). AJA, GW347845, or vehicle alone was incubated with the 35S-labeled PPARs at room temperature for one hour before trypsin digestion. Reactions were stopped by boiling in SDS-containing sample buffer, and lysates were subjected to SDS-PAGE and autoradiography.
The PPAR proteins were synthesized and labeled with ^35S-methionine in reticulocyte lysate and incubated with AJA, GW347845, or vehicle alone at room temperature for one hour before trypsin digestion. The reactions were terminated by boiling in SDS-containing protein sample buffer. The proteolytic patterns of PPAR proteins were then analyzed by SDS-PAGE and autoradiography, and compared with vehicle-treated control samples.
The AJA concentrations required to protect PPARγ from trypsin digestion were further measured.

For data set [3] the following is noted: animal models; cited from earlier work.
Data set [4] has as its target T3, human PPARα (Homo sapiens, UniProt Q07869).
T3 construct: The Gal4-hPPAR LBD constructs were obtained from GlaxoSmithKline; host or cells: HEK293
T3 sequence (Q07869 239-466 limits assumed): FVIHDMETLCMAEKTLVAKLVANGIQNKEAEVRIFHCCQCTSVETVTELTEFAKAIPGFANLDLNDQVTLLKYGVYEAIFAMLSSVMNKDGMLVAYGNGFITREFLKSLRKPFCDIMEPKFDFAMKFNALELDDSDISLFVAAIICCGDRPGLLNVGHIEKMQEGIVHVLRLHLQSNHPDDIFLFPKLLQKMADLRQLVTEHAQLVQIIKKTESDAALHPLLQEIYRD
Kind of data set: Gal4-dependent MH100-Luc reporter, human PPARα. The format is cell-based. The procedure: The pGEX-DRIP205 (527˜970) was obtained from the Sloan-Kettering Cancer Center. The Gal4-hPPAR LBD constructs were obtained from GlaxoSmithKline, Research Triangle Park, NC. The IL8-Luciferase reporter was obtained from Celgene, San Diego, Calif. The plasmids mPPARα, mPPARγ1, mPPARδ , and hRXRα were in the pCMX vector (Umesono et al., Cell 65:1255-1266, 1991).
For PPARγ activation assay, HEK293 cells were plated in 12-well cell culture plates and maintained in Dulbecco's modified Eagle's medium (DMEM) supplemented with 10% fetal bovine serum (FBS) at 37° C. under 5% CO2. […] The average normalized luciferase activity was determined via triplicate experiments. […]
To further confirm activation of PPARγ by AJA, and also to determine PPARγ species specificity, the ability of AJA to activate the chimeric Gal4-DBD/PPAR fusion proteins on a Gal4-dependent MH100-Luc reporter was assessed (FIG. 4A). The PPARs were expressed as Gal4 DBD fusion proteins, which bind to the UAS promoter containing 4 copies of a synthetic Gal4 binding site upstream of the minimal thymidine kinase (TK) promoter. […] Transfected cells were treated with increasing concentrations of AJA from 10-60 μM and the luciferase activities were determined in triplicate experiments. […]

On to `CCCCCCC(C)(C)c1cc(O)c2c(c1)OC(C)(C)[C@@H]1CC=C(C(=O)O)C[C@@H]21` [AJA, dimethylheptyl-THC-11-oic acid], for which, in data set [1], the “concentration range suppressing COX-2 activity” value was 1 to 10 µM. Moreover, in data set [2], the “proteinase sensitivity of PPARδ” value is “did not affect the proteinase sensitivity”. Further, the psychoactivity entry in data set [3] is “does not show the typical psychoactive effect”. In data set [4], the “activation of human PPARα” value is reported as “did not activate”.
